Experimental findings from patent publication US20050147608A1, “Novel regulatory mechanisms of NF-kappaB” (Beth Israel Deaconess Medical Center, Inc., priority 2003, published 2005) are described below.

Where a SMILES comes first, the peptide text is derived from it. The star is where a group is joined. Cbz = O=C(OCc1ccccc1)*

The subject of data set [1] is p65-T254A. Description: Protein degradation assay (cycloheximide chase, immunoblot) of p65-T254A in 293T cells. Format: cell-based. Set-up: dose or concentration left out as unconfirmed. The method, then:
(A, B) Stabilization of p65-T254A by a proteosome inhibitor. 293T cells expressing Xpress-p65-T254A or Xpress-LacZ were treated with cycloheximide and MG-132 ([…]) or the solvent DMSO for the times indicated, followed by immunoblot with anti-Xpress antibody (A), followed by semi-quantification with Imagequant (B). (C) Ubiquitination of p65 in vitro. In vitro translated 35 S-labeled p65 was incubated with ubiquitin in the presence or absence of E1 and UbcH5a for times indicated, followed by separation on SDS-PAGE and autoradiography. (D) Ubiquitination of the GST-p65 fragment B, but A or C. GST-p65 truncation mutants (FIG. 3D) were incubated with HeLa S-100 extracts, ubiquitin, E1 and either UbcH5a or UbcH6 for 3 hrs, followed by GST pulldown and immunoblotting with anti-ubiquitin antibody. (E) Ubiquitination of GST-p65 fragment B via UbcH5a. GST-p65-truncated mutant B was subjected to ubiquitination assay in vitro using different E2 enzymes.
293T cells were transfected with Xpress-tagged p65. A plasmid encoding Xpress-LacZ was used as a transfection control. […] Cells were harvested at each time points, and total lysates were analyzed by immunoblotting with anti-Xpress antibody (Invitrogene). The blots were scanned and semi-quantified by using the software NIH image 1.6.2, as described (Ryo et al., 2001). […]
(A western blot detects proteins with antibodies after separation by electrophoresis.)

For data set [2], the system named is p65-T254A. The data set can be described thus: Co-immunoprecipitation of Pin1 with Xpress-tagged p65-T254A in 293T cells after proteasome inhibition. Format: cell-based. The note with it: 20 μM MG-132 for 12 hr. On the procedure:
(G) Failure of Pin1 to bind p65-T254A. 293T cells were co-transfected with Pin1 and Xpress-tagged p65 or its T254A mutant. After cells were incubated with 20 μM MG-132 for 12 hr, they were subjected to immunoprecipitation analysis with anti-Xpress antibody, followed by immunoblot with anti-p65 or anti-Pin1 antibodies.
(§1) Cells were arrested at the G1/S phase or the mitotic phase, as describe previously. Total cells, 293T or HeLa, were lysed with GST-pulldown buffer (50 mM Hepes pH7.4, 150 mM NaCl, 10% glycerol, 1% Triton-X100, 1.5 mM MgC12, 1 mM EGTA, 100 mM NaF, 1 mM Na3VO4, 1 mM DTT and 0.5 μg/ml Leupeptin, 1.0 μg/ml Pepstatin, 0.2 mM PMSF) and incubated were incubated with 20 μl of agarose beads containing GST-Pin1 or GST at 4° C. for 2 hr, as described previously (Ryo et al., 2001). The precipitated proteins were washed three times with wash buffer containing and subjected to SDS-PAGE. For immunoprecipitation, cells were harvested at 24 hr after transfection and lysed with NP-40 lysis buffer (10 mM Tris HCl pH7.5, 100 mM NaCl, 0.5% NP-40, 1 mM Na3VO4, 0.5 μg/ml Leupeptin, 1.0 μg/ml Pepstatin, 0.2 mM PMSF). Cell lysates were incubated for 1 hr with Protein A/G Sepahrose/mouse IgG complexes.
Three truncation mutants of p65 were generated and subjected them to the GST-pulldown assay. […]

The test system of data set [3] is p65. The data set can be described thus: In vivo ubiquitination assay of p65 in HeLa cells (His-ubiquitin, Ni-agarose pulldown). The following applies: His-tagged ubiquitin, MG-132 for 16 hr. Format: cell-based. The method, then:
(F) Ubiquitination of p65 in vivo. HeLa cells expressing p65, UbcH5a and His-tagged ubiquitin or vector controls were treated with MG-132 or DMSO control for 16 hr, followed by lysis using sonication in a buffer containing 6M urea. Ubiquitin-conjugated proteins were captured with […] beads and subjected to immunoblot with anti-p65 antibody.
To examine which region of the p65 molecule can be ubiquitinated, different GST-p65 fragments (FIG. 3D) were incubated with S100 HeLa cells extracts, ubiquitin, E1 and UbcH5a or UbcH6, and then purified GST-p65 fragments using GST beads, followed by immunoblot with anti-ubiquitin antibodies. Although neither the fragment A nor C was ubiquitinated, fragment B, which contains the Pin1 binding Thr254-pro motif (FIG. 3E), was poly-ubiquitinated with UbcH5a, but not with UbcH6 (FIG. 6D). To examine whether other E2 enzymes could catalyze the ubiquitination of p65 in vitro, we incubated recombinant GST-p65 fragment B with in vitro ubiquitination assay using different E2 enzymes. Out of the 8 E2 enzymes examined, only UbcH5a effectively conjugated multiple ubiquitin molecules into p65 (FIG. 6E). […] However, no ubiquitinated p65 was detected in the absence of His ubiquitin and/or MG-132 (FIG. 6F), indicating the specificity of the in vivo ubiquitination assay.

The subject of data set [4] is p65. The data set can be described thus: p65 protein stability in Pin1−/− MEFs. Format: cell-based, mouse. The source says:
The ability of Pin1 to regulate the protein stability of p65 led to another surprising finding in this study, which is the ubiquitin-mediated proteolysis of p65. Although the ubiquitin-mediated proteolysis of IkBα has been well characterized (Baeuerle and Baltimore, 1996; Ghosh et al., 1998), a similar regulation has not been previously described for NF-kB itself. […] Furthermore, even in Pin1+/+ cells, the point mutation in p65 (T254A) that disrupts its binding to Pin1 converts p65 from a stable into an extremely unstable protein due to rapid nuclear export and subsequent protein degradation.

The test system of another data set is Pin1 and p65. Description: GST-Pin1 pulldown of Xpress-tagged p65 from 293T cells. Format: binding. The following applies: 293T cells treated with TNF-α for 3 hrs vs PBS. On the procedure:
(D) Enhancement of Pin1 and p65 binding by TNF-α. 293T cells expressing Xpress-tagged p65 were treated with PBS or TNF-αfor 3 hrs, followed by GST-pull down experiment and immunoblot with anti-Xpress antibody.
as §1
Pin1 binds and isomerizes specific pSer/Thr-Pro motifs in certain phosphoproteins. To explore the molecular mechanism of NF-kB activation by Pin1, it was investigated as to whether any components of NF-kB or IkBα are Pin1 substrates. […]

Another data set deals with NF-κB. Description: NF-κB-Luc gene reporter assay in breast cancer cell lines after Pin1 inhibition. The following applies: BT20 (ER-negative) and MCF-7 (ER-positive) cells, both cell lines; 48 hrs after transfection. The format is cell-based. The source says: (C) Inhibition of NF-κB activation and NF-κB DNA binding activity in breast cancer cell lines by downregulation of Pin 1. Two breast cancer cell lines were transfected with Pin1-specific or non-specific siRNA together with a NF-kB-Luc or TK-Luc reporter construct for 48 hrs, followed by assaying luciferase activity and Pin1 protein levels (insets) (C) or assaying NF-κB DNA binding activity by EMSA using NF-κB or OCT1 consensus oligonucleotides (D).
Approximately 60% confluent cells were transfected in triplicate in 12 well dishes with Effectene (Qiagen). Gene reporter assays were performed with Dual-Luciferase reporter assay system (Promega) at 24-36 hr after transfection as described previously (Wulf et al., 2001). pRL-TK (Promega) was used as an internal control for transfection efficiency. All results are expressed as X±SD of independent triplicate cultures. For gene reporter assays in breast cancer cell line, cells were transfected with pSuppressor Neo vector encoding Pin1 specific siRNA (5′-[…]-3′) or non-specific siRNA (5′-[…]-3′) together with Ig-kB luciferase construct and pRL-TK. After 48 hr, cells were lysed and subjected to gene reporter assay.
Given that the NF-κB activation is regulated by a series of phosphorylation events, it was investigated whether Pin1 is involved in this regulation. […]

For `CC(C)C[C@@H](C=O)NC(=O)[C@H](CC(C)C)NC(=O)[C@H](CC(C)C)NC(=O)OCc1ccccc1` [MG-132] (Cbz-Leu-Leu-Leu-aldehyde), in the data set on p65-T254A [1], the “half-life of p65-T254A protein” value is reported as “strikingly prolonged the half-life of p65-T254A protein”. Besides, in the data set with p65-T254A [2], the “stability of p65-T254A” value is listed as “p65-T254A was stable”. The “poly-ubiquitination of p65” value in the data set on p65 [3] was “p65 was substantially poly-ubiquitinated”. For the same molecule, the “stability of p65” value with p65 [4] is given as “could be stabilized”.

With TNF-α, in the data set with Pin1 and p65, the “increase of Pin1-p65 binding” value is about 3 fold.

Turning to “siRNA: pSuppressor Neo vector encoding Pin1 specific siRNA (5′-GCCACATCACTAACGCCAGC-3′) (expressed from pSuppressor Neo vector)”, the “transcriptional activity of NF-κB-Luc” value with NF-κB is reported as “significantly suppressed the transcriptional activity of NF-κB-Luc”.
